Reference: patent publication US10307418B2, “Azole pharmaceutical formulations for parenteral administration and methods for preparing and using the same as treatment of diseases sensitive to azole compounds” (Platform Brightworks Two, Ltd., priority 2010, dated 2019)
≈ marks a conversion by molar mass, not a printed value. Where two headings read alike, the source gives them in different places.

Legend:
[1] = tested on: Candida cruzei (ATCC strain 6258); assay: Yeast susceptibility test, MIC (CLSI standard); format: cell-based; settings: tested range 38 μg/mL to 0.03 μg/mL, read out at 24 hours, average of three experiments
Method: Briefly, susceptibility tests were set-up using a standardized methodology (CLSI […] standard). Drugs were diluted into RPMI-Mops medium (Yeast One Broth (Sensititer, product Y3462, Trek Diagnostic Systems, Cleveland, Ohio) Sensititer Lot number 151416SA-expiration date 2011-01). Two different strains of yeast were tested, the standardized evaluation/read out was performed at 24 hours after the start of each culture. The tests were repeated twice and all MIC (minimum inhibitory concentration) values are reported as an average of the three experiments.

[2] = tested on: Aspergillus fumigatus (ATCC strain 90906); assay: Mold susceptibility test, MIC (CLSI M38A); format: cell-based
Method: Two hyaline molds were tested with a standard read out at 48 hrs:
Tested drug range: 75 μg/mL to 0.07 μg/mL
To further determine the antifungal activity of the compounds in the new formulation systems we investigated the efficacy of the various agents against additional strains of mucor and Aspergillus (9/-16-9/20/2010) (The Rhizomucor was a clinical isolate from a patient isolate) and the Aspergillus fumigatus (ATCC strain 90906) used was a repeat from the previously described experiment. Again, the susceptibility tests were set-up using the standardized test method (CLSI M38A). The used drugs were provided in the described H3 final use-formulation that has been previously described. All drugs were diluted in RPMI-Mops medium (YeastOne, Sensititer Lot 151416SA, expiration date January 2011).
As before two different molds were tested with a standard read out at 48 hr: • Drug dilution range 75 μg/mL to 0.07 μg/mL. • Aspergillus fumigatus (ATCC strain 90906) Zygomycete (Clinical Lab isolate, MDACC) […]

[3] = Stability of ITZA/POSA in solvent vehicles (HPLC); format: physicochemical
[4] = cited from earlier work
[5] = Plasma pharmacology after IV injection in mice; settings: IV dose of 5 mg/kg
Method: Swiss Webster mice were used for pharmacokinetic studies of ITZA and its analogs. The dilation of the vein was accomplished by warming up the mice using a heat lamp. […] Mice were allowed to recover and blood samples were obtained through cardiac puncture under general anesthesia with Isoflurane/oxygen by vaporizer at various time points. Plasma was obtained by centrifugation of blood sample at 3,200 rpm for 5 min. at 4° C. Plasma proteins were precipitated by adding acetonitrile (twice the volume of plasma). The mixture was vortexed for 30 seconds and centrifuged for 5 min. at 14,000 rpm. The supernatant was saved and was injected into the HPLC to determine the respective drug concentrations.
Unless specified, the analogous experiments were performed using POSA as an alternative to ITZA; Swiss Webster mice of both sexes with a body weight of 25-30 g were used for the in vivo pharmacology experiments (Harlan-Sprague-Dawley, Houston, Tex.). The animals were allowed a minimum of 7 days after arrival to accommodate to the new environment and allowed free access to commercial feed and tap water prior to and during the experimentation period. The animals were housed in an Association for the Assessment and Accreditation of Laboratory Animal Care International (AAALAC)-approved facility that meets the requirements of the USDA, NIH, and DHHS.
The ITZA dose of 5 mg/kg BW was determined to be a suitable test dose that could be administered to the mice as a slow (3-4 min) IV bolus injection without requiring sedation, but could be performed with only minimal physical restraint of the animals in a standard funnel-type cage.
The ITZA was formulated in the H3 solvent system described above as the preferred solvent to a stock concentration of 4-5 mg/mL and then diluted with NS (ratio 1:1) so the intended dose (5.0 mg/kg BW) could be injected in a tail vein in a total volume of approximately 100 μL. […] No sedative premedication was used for the mice in this experiment to avoid the possible induction of microsomal liver enzymes that could modify ITZA metabolism. Thus, the animals were unanesthetized, being only physically restrained during and immediately following the drug injection.
Blood samples (0.5-1.0 mL) were drawn through cardiac puncture into heparinized tubes at selected time points prior to the drug infusion (“blank”), and from 5 min to 1 hour after drug injection for determination of ITZA concentrations, and for 5 min to about 7 hrs in the POSA experiment. The mice were exposed to 2% -4% isoflurane for general anesthesia. Blood samples were obtained through cardiac puncture and immediately deposited in heparinized microcentrifuge tubes.

CCC(C)n1ncn(-c2ccc(N3CCN(c4ccc(OCC5COC(Cn6cncn6)(c6ccc(Cl)cc6Cl)O5)cc4)CC3)cc2)c1=O (centres unmarked) [ITZA, itraconazole]
MIC [1]: 0.07 µg/mL (≈ 0.0992 µM) | MIC ([1]; listed as ITZA*): 0.15 µg/mL (≈ 0.213 µM) | MIC ([2]; Aspergillus fumigatus, ATCC90906, 48 h, tested range 75 μg/mL to 0.07 μg/mL, read out at 48 hrs, first experiment, read-out: MIC): 1.2 µg/mL (≈ 1.7 µM) | MIC ([2]; extended mold testing (repeat), H3 final use-formulation, range 75 μg/mL to 0.07 μg/mL, 48 hr): 1.2 µg/mL (≈ 1.7 µM) | MIC ([2]; extended mold testing (repeat), H3 final use-formulation, range 75 μg/mL to 0.07 μg/mL, 48 hr, listed as ITZA*): 0.3 µg/mL (≈ 0.425 µM) | MIC ([2]; tested range 75 μg/mL to 0.07 μg/mL, read out at 48 hrs, first experiment): 0.6 µg/mL (≈ 0.85 µM) | Stability (% remaining) ([3]; 2-6 mg/mL in composite (prototype) solvent vehicles, more than three days or 72 hours at RT): more than 90% | Stability (%) ([3]; H3D, 4 mg/mL, 0 hr): 100% | Stability (%) ([3]; H3D, 4 mg/mL, 2 hr): 102% | Stability (%) ([3]; H3D, 4 mg/mL, 4 hr): 101% | Stability (%) ([3]; H3D, 4 mg/mL, 8 hr): 99% | Stability (%) ([3]; H3D, 4 mg/mL, 24 hr): 97% | stability of ITZA ([3]; H3D, day 0): 100% | stability of ITZA ([3]; H3D, day 1): 94% | stability of ITZA ([3]; H3D, day 2): 95% | stability of ITZA ([3]; H3D, day 3): 93% | stability of ITZA ([3]; H3D, day 4): 94% | stability of ITZA ([3]; H3D, day 5): 98% | stability of ITZA ([3]; H3D/5% dex., day 0): 100% | stability of ITZA ([3]; H3D/5% dex., day 1): 100% | stability of ITZA ([3]; H3D/5% dex., day 2): 103% | stability of ITZA ([3]; H3D/5% dex., day 4): 99% | stability of ITZA ([3]; H3D/5% dex., day 5): 93% | stability of ITZA ([3]; H3D/10% Dex., day 0): 100% | stability of ITZA ([3]; H3D/10% Dex., day 1): 98% | stability of ITZA ([3]; H3D/10% Dex., day 2): 98% | stability of ITZA ([3]; H3D/10% Dex., day 3): 102% | stability of ITZA ([3]; H3D/10% Dex., day 4): 99% | stability of ITZA ([3]; H3D/10% Dex., day 5): 105% | stability of ITZA ([3]; H3D/sal., day 0): 100% | stability of ITZA ([3]; H3D/sal., day 1): 107% | stability of ITZA ([3]; H3D/sal., day 2): 107% | stability of ITZA ([3]; H3D/sal., day 3): 110% | stability of ITZA ([3]; H3D/sal., day 5): 90% | stability of ITZA ([3]; H3G, day 0): 100% | stability of ITZA ([3]; H3G, day 1): 103% | stability of ITZA ([3]; H3G, day 2): 100% | stability of ITZA ([3]; H3G, day 3): 89% | stability of ITZA ([3]; H3G, day 4): 103% | stability of ITZA ([3]; H3G, day 5): 106% | stability of ITZA ([3]; H3G/5% Dex., day 0): 100% | stability of ITZA ([3]; H3G/5% Dex., day 1): 102% | stability of ITZA ([3]; H3G/5% Dex., day 2): 109% | stability of ITZA ([3]; H3G/5% Dex., day 3): 94% | stability of ITZA ([3]; H3G/5% Dex., day 4): 99% | stability of ITZA ([3]; H3G/5% Dex., day 5): 42% | stability of ITZA ([3]; H3G/10% dex., day 0): 100% | stability of ITZA ([3]; H3G/10% dex., day 2): 102% | stability of ITZA ([3]; H3G/10% dex., day 3): 98% | stability of ITZA ([3]; H3G/10% dex., day 4): 107% | stability of ITZA ([3]; H3G/10% dex., day 5): 31% | stability of ITZA ([3]; H3G/sal., day 0): 100% | stability of ITZA ([3]; H3G/sal., day 1): 95% | stability of ITZA ([3]; H3G/sal., day 2): 94% | stability of ITZA ([3]; H3G/sal., day 3): 80% | stability of ITZA ([3]; H3G/sal., day 4): 70% | stability of ITZA ([3]; H3G/sal., day 5): 38% | Stability (%) ([3]; Solvent H3G, 0 hr): 100% | Stability (%) ([3]; Solvent H3G, 2 hr): 108% | Stability (%) ([3]; Solvent H3G, 4 hr): 104% | Stability (%) ([3]; Solvent H3G, 6 hr): 101% | Stability (%) ([3]; Solvent H3G, 8 hr): 98% | Stability (%) ([3]; Solvent H3G, 24 hr): 103% | Stability (%) ([3]; parent solvent H3, approximately 4 mg/mL, room temperature, 14 (2 w)): 83% | Stability (%) ([3]; parent solvent H3, approximately 4 mg/mL, room temperature, 21 (3 w)): 79% | Stability (%) ([3]; parent solvent H3, approximately 4 mg/mL, room temperature, 28 (4 w)): 75% | Stability (%) ([3]; parent solvent H3, approximately 4 mg/mL, room temperature, 35 (5 w)): 77% | Stability (%) ([3]; parent solvent H3, approximately 4 mg/mL, room temperature, 49 (7 w)): 79% | Stability (%) ([3]; parent solvent H3, approximately 4 mg/mL, room temperature, 63 (9 w)): 75% | Stability (%) ([3]; parent solvent H3, approximately 4 mg/mL, room temperature, 24 hrs): 99% | Stability (%) ([3]; parent solvent H3, approximately 4 mg/mL, room temperature, 72 hrs): 95% | Stability (%) ([3]; parent solvent H3, approximately 4 mg/mL, room temperature, 96 hrs): 88% | Stability (%) ([3]; parent solvent H3, approximately 4 mg/mL, room temperature, 11 days): 77% | Stability (%) ([3]; parent solvent H3, approximately 4 mg/mL, room temperature, time 0): 100% | Stability (%) ([3]; solvent H3, approximately 4 mg/mL, 40° C., 3 hr): 104% | Stability (%) ([3]; solvent H3, approximately 4 mg/mL, 40° C., 6 hr): 98% | Stability (%) ([3]; solvent H3, approximately 4 mg/mL, 40° C., 24 hr): 92% | Stability (%) ([3]; solvent H3, approximately 4 mg/mL, 40° C., 30 hr): 89% | Stability (%) ([3]; solvent H3, approximately 4 mg/mL, 40° C., 48 hr): 84% | Stability (%) ([3]; solvent H3, approximately 4 mg/mL, 40° C., 54 hr): 79% | Stability (%) ([3]; solvent H3, approximately 4 mg/mL, 40° C., 78 hr): 80% | Stability (%) ([3]; solvent H3, approximately 4 mg/mL, 40° C., 4 days): 78% | Stability (%) ([3]; solvent H3, approximately 4 mg/mL, 40° C., 7 days): 70% | Stability (%) ([3]; solvent H3, approximately 4 mg/mL, 40° C., 8 days): 70% | Stability (%) ([3]; solvent H3, approximately 4 mg/mL, 40° C., 9 days): 58% | Stability (%) ([3]; solvent H3, approximately 4 mg/mL, 40° C., 14 days): 56% | Stability (%) ([3]; solvent H3, approximately 4 mg/mL, 40° C., 16 days): 55% | Stability (%) ([3]; solvent H3, approximately 4 mg/mL, 40° C., 18 days): 54% | Stability (%) ([3]; solvent H3, approximately 4 mg/mL, 40° C., 21 days): 45% | Stability (%) ([3]; solvent H3, approximately 4 mg/mL, 40° C., 25 days): 37% | Stability (%) ([3]; solvent H3, approximately 4 mg/mL, 40° C., 28 days): 30% | Stability (%) ([3]; solvent H3, approximately 4 mg/mL, 40° C., 32 days): 24% | Stability (%) ([3]; solvent H3/normal saline (1:1), approximately 2.0 mg/mL, RT, 0 hrs): 100% | Stability (%) ([3]; solvent H3/normal saline (1:1), approximately 2.0 mg/mL, RT, 2 hrs): 97% | Stability (%) ([3]; solvent H3/normal saline (1:1), approximately 2.0 mg/mL, RT, 4 hrs): 97% | Stability (%) ([3]; solvent H3/normal saline (1:1), approximately 2.0 mg/mL, RT, 8 hrs): 102% | Stability (%) ([3]; solvent H3/normal saline (1:1), approximately 2.0 mg/mL, RT, 14 hrs): 109% | Stability (%) ([3]; solvent H3/normal saline (1:1), approximately 2.0 mg/mL, RT, 24 hrs): 93% | known plasma half-life ([4]; literature (Ref 24, 32, 42, 45)): 10 to 11 h | bioavailability ([4]; oral preparations, literature): approximately 50% | time plasma concentrations remain in the fungi-toxic range [5]: in excess of one hour
